Results reported in patent publication US20260055079A1, “PHTHALAZINONE COMPOUNDS AS PARP7 INHIBITORS” (AZKARRA THERAPEUTICS, INC., priority 2022, published 2026).
Read-outs that look alike come from different tables or passages of the source.

How the values were obtained:
His-GST-PARP7 = His-GST-PARP7 (Homo sapiens (Human), UniProt Q7Z3E1); assay: PARP7 biochemical assay; details: read-out: PARP7 IC50
PARP2 = PARP2 (Homo sapiens (Human), UniProt Q9UGN5); assay: PARP2 biochemical assay
[1] = system: NCI-H1373 (human lung adenocarcinoma) cells; assay: Cell proliferation assay (CellTiter-Glo), NCI-H1373; format: cell-based; details: Homo sapiens, NCI-H1373, 144 h, read-out: NCI-H1373 GI50
[2] = system: HARA (human lung squamous cell carcinoma) cells; assay: Cell proliferation assay (CellTiter-Glo), HARA; format: cell-based; details: Homo sapiens, 144 h, read-out: HARA GI50

Sequence of His-GST-PARP7 (Q7Z3E1 whole entry): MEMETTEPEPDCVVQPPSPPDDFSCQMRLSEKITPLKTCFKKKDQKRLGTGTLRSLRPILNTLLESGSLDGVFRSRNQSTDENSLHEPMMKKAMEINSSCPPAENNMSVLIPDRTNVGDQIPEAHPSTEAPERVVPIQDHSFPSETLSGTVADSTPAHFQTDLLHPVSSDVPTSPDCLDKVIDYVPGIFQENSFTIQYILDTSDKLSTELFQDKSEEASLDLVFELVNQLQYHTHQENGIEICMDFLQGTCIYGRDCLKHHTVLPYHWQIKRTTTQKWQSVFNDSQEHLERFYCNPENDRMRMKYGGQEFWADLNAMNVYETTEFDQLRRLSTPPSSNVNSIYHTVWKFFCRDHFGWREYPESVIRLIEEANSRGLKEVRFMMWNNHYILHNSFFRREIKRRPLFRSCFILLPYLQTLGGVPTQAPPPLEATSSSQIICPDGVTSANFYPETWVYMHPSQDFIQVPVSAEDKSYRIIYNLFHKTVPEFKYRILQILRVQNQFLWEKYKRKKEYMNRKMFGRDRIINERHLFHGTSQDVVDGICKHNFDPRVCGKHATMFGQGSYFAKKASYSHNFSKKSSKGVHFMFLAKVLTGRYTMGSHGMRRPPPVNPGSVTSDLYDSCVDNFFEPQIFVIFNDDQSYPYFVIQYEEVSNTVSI
Sequence of PARP2 (Q9UGN5 whole entry): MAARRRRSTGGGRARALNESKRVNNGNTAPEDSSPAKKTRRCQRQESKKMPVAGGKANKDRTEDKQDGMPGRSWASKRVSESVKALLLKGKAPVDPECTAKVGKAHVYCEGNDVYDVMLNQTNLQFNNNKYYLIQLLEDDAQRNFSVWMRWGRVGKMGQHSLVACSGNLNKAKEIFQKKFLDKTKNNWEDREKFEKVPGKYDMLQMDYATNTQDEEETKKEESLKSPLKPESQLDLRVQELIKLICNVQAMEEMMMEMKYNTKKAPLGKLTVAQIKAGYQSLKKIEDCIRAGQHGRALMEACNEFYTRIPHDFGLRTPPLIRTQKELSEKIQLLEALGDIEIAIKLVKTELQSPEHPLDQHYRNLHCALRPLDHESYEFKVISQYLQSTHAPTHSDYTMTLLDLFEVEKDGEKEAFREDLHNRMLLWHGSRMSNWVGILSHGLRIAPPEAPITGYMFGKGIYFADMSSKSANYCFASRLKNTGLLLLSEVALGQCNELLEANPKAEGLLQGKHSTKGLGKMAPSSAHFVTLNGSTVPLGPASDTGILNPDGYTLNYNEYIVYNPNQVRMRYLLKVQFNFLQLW

Compound: N#Cc1ccc(N2CCN(C(=O)c3cc(Cc4n[nH]c(=O)c5ccc(OC(F)(F)F)cc45)ccc3F)CC2)nc1 [Example 30, 6-(4-(2-fluoro-5-((4-oxo-7-(trifluoromethoxy)-3,4-dihydrophthalazin-1-yl)methyl)benzoyl)piperazin-1-yl)nicotinonitrile]
- IC50 (His-GST-PARP7): < 50 nM
- IC50 (PARP2; read-out: PARP2 IC50): 100 to 500 nM
- GI50 ([1]; 6 days, CellTiter-Glo): 100 to 1000 nM

Compound: O=C(c1cc(Cc2n[nH]c(=O)c3ccc(C4CC4)cc23)ccc1F)N1CCN(c2ncc(C(F)(F)F)cn2)CC1 [Example 45, 6-Cyclopropyl-4-(4-fluoro-3-(4-(5-(trifluoromethyl)pyrimidin-2-yl)piperazine-1-carbonyl)benzyl)phthalazin-1(2H)-one]
- IC50 (His-GST-PARP7): < 50 nM
- IC50 (PARP2; read-out: PARP2 IC50): 100 to 500 nM

Compound: O=C(c1cc(Cc2n[nH]c(=O)c3ccc(C#CC4CC4)cc23)ccc1F)N1CCN(c2ncc(C(F)(F)F)cn2)CC1 [Example 47, 6-(Cyclopropylethynyl)-4-(4-fluoro-3-(4-(5-(trifluoromethyl)pyrimidin-2-yl)piperazine-1-carbonyl)benzyl)phthalazin-1(2H)-one]
- IC50 (His-GST-PARP7): 100 to 500 nM
- IC50 (PARP2; read-out: PARP2 IC50): 500 to 2000 nM

Compound: CNc1ccc2c(=O)[nH]nc(Cc3ccc(F)c(C(=O)N4CCN(c5ccc(C#N)cn5)CC4)c3)c2c1 [Example 16, 6-(4-(2-fluoro-5-((7-(methylamino)-4-oxo-3,4-dihydrophthalazin-1-yl)methyl)benzoyl)piperazin-1-yl)nicotinonitrile]
- IC50 (His-GST-PARP7): < 50 nM
- IC50 (PARP2; read-out: PARP2 IC50): < 50 nM
- GI50 [1]: 1000 to 5000 nM

Compound: N#Cc1ccc(N2CCN(C(=O)c3cc(Cc4n[nH]c(=O)c5ccc(OC6CCC6)cc45)ccc3F)CC2)nc1 [Example 14, 6-(4-(5-((7-Cyclobutoxy-4-oxo-3,4-dihydrophthalazin-1-yl)methyl)-2-fluorobenzoyl)piperazin-1-yl)nicotinonitrile]
- IC50 (His-GST-PARP7): < 50 nM
- IC50 (PARP2): 500 to 2000 nM
- GI50 [1]: < 100 nM
- GI50 [2]: 1000 to 5000 nM

Compound: C#CCOc1ccc2c(=O)[nH]nc(Cc3ccc(F)c(C(=O)N4CCN(c5ccc(C#N)cn5)CC4)c3)c2c1 [Example 3, 6-(4-(2-fluoro-5-((4-oxo-7-(prop-2-yn-1-yloxy)-3,4-dihydrophthalazin-1-yl)methyl)benzoyl)piperazin-1-yl)nicotinonitrile]
- IC50 (His-GST-PARP7): < 50 nM
- IC50 (PARP2; read-out: PARP2 IC50): < 50 nM
- GI50 [1]: < 100 nM
- GI50 [2]: 1000 to 5000 nM

Compound: CC#Cc1cc(Cl)c2c(=O)[nH]nc(Cc3ccc(F)c(C(=O)N4CCN(c5ccc(C#N)cn5)CC4)c3)c2c1 [Example 85, 6-(4-(5-((5-chloro-4-oxo-7-(prop-1-yn-1-yl)-3,4-dihydrophthalazin-1-yl)methyl)-2-fluorobenzoyl)piperazin-1-yl)nicotinonitrile]
- IC50 (His-GST-PARP7): 100 to 500 nM
- IC50 (PARP2; read-out: PARP2 IC50): 50 to 100 nM
- GI50 ([1]; 6 days, CellTiter-Glo): < 100 nM

Compound: N#Cc1ccc(N2CCN(C(=O)c3cc(Cc4n[nH]c(=O)c5ccc(NCC6CC6)cc45)ccc3F)CC2)nc1 [Example 20, 6-(4-(5-((7-(cyclopropylmethylamino)-4-oxo-3,4-dihydrophthalazin-1-yl)methyl)-2-fluorobenzoyl)piperazin-1-yl)nicotinonitrile]
- IC50 (His-GST-PARP7): < 50 nM
- IC50 (PARP2; read-out: PARP2 IC50): < 50 nM
- GI50 ([1]; 6 days, CellTiter-Glo): 100 to 1000 nM

Compound: N#Cc1ccc(N2CCN(C(=O)c3cc(Cc4n[nH]c(=O)c5ccc(N6CC7(CCC7)C6)cc45)ccc3F)CC2)nc1 [Example 31, 6-(4-(2-Fluoro-5-((4-oxo-7-(2-azaspiro[3.3]heptan-2-yl)-3,4-dihydrophthalazin-1-yl)methyl)benzoyl)piperazin-1-yl)nicotinonitrile]
- IC50 (His-GST-PARP7): < 50 nM
- IC50 (PARP2; read-out: PARP2 IC50): > 2000 nM
- GI50 ([1]; 6 days, CellTiter-Glo): 100 to 1000 nM

Compound: CN(C)CC#Cc1ccc2c(=O)[nH]nc(Cc3ccc(F)c(C(=O)N4CCN(c5ncc(C(F)(F)F)cn5)CC4)c3)c2c1 [Example 46, 6-(3-(Dimethylamino)prop-1-yn-1-yl)-4-(4-fluoro-3-(4-(5-(trifluoromethyl)pyrimidin-2-yl)piperazine-1-carbonyl)benzyl)phthalazin-1(2H)-one]
- IC50 (His-GST-PARP7): < 50 nM
- IC50 (PARP2; read-out: PARP2 IC50): 100 to 500 nM

Compound: CC#Cc1ccc2c(=O)[nH]nc(Cc3cc(F)c(F)c(C(=O)N4CCN(c5ccc(C#N)cn5)CC4)c3)c2c1 [Example 74, 6-(4-(2,3-Difluoro-5-((4-oxo-7-(prop-1-ynyl)-3,4-dihydrophthalazin-1-yl)methyl)benzoyl)piperazin-1-yl)nicotinonitrile]
- IC50 (His-GST-PARP7): < 50 nM
- IC50 (PARP2; read-out: PARP2 IC50): 50 to 100 nM
- GI50 ([1]; 6 days, CellTiter-Glo): 100 to 1000 nM

Compound: CC#Cc1ccc2c(=O)[nH]nc(Cc3ccc(F)c(C(=O)N(C)CCN(CC)c4ccc(C#N)cn4)c3)c2c1 [Example 198, N-(2-((5-Cyanopyridin-2-yl)(ethyl)amino)ethyl)-2-fluoro-N-methyl-5-((4-oxo-7-(prop-1-yn-1-yl)-3,4-dihydrophthalazin-1-yl)methyl)benzamide]
- IC50 (His-GST-PARP7): < 50 nM
- IC50 (PARP2; read-out: PARP2 IC50): > 2000 nM

Compound: N#Cc1ccc(N2CCN(C(=O)c3cc(Cc4n[nH]c(=O)c5ccc(OC6CC6)cc45)ccc3F)CC2)nc1 [Example 13, 6-(4-(5-((7-Cyclopropoxy-4-oxo-3,4-dihydrophthalazin-1-yl)methyl)-2-fluorobenzoyl)piperazin-1-yl)nicotinonitrile]
- IC50 (His-GST-PARP7): < 50 nM
- IC50 (PARP2): 100 to 500 nM
- GI50 [1]: 100 to 1000 nM

Compound: CC#Cc1ccc2c(=O)[nH]nc(Cc3ccc(F)c(C(=O)N4CCN(c5ccc(C#N)cn5)CC4C)c3)c2c1 (stereo not shown) [Example 61, 6-(4-(2-Fluoro-5-((4-oxo-7-(prop-1-yn-1-yl)-3,4-dihydrophthalazin-1-yl)methyl)benzoyl)-3-methylpiperazin-1-yl)nicotinonitrile]
- IC50 (His-GST-PARP7): < 50 nM
- IC50 (PARP2; read-out: PARP2 IC50): < 50 nM

Compound: CC#Cc1ccc2c(=O)[nH]nc(C(C)N(C)CCC(=O)N3CCN(c4ncc(C(F)(F)F)cn4)CC3)c2c1 (stereo not shown) [Example 193, 4-(1-(methyl(3-oxo-3-(4-(5-(trifluoromethyl)pyrimidin-2-yl)piperazin-1-yl)propyl)amino)ethyl)-6-(prop-1-yn-1-yl)phthalazin-1(2H)-one]
- IC50 (His-GST-PARP7): < 50 nM
- IC50 (PARP2; read-out: PARP2 IC50): > 2000 nM
- GI50 ([1]; 6 days, CellTiter-Glo): 100 to 1000 nM

Compound: N#Cc1ccc(N2CCN(C(=O)c3cc(Cc4n[nH]c(=O)c5ccc(C6CC6)cc45)ccc3F)CC2)nc1 [Example 40, 6-(4-(5-((7-Cyclopropyl-4-oxo-3,4-dihydrophthalazin-1-yl)methyl)-2-fluorobenzoyl)piperazin-1-yl)nicotinonitrile]
- IC50 (His-GST-PARP7): < 50 nM
- IC50 (PARP2; read-out: PARP2 IC50): 100 to 500 nM

Compound: N#Cc1ccc(N2CCN(C(=O)c3cc(Cc4n[nH]c(=O)c5ccc(N6CC(F)(F)C6)cc45)ccc3F)CC2)nc1 [Example 18, 6-(4-(5-((7-(3,3-Difluoroazetidin-1-yl)-4-oxo-3,4-dihydrophthalazin-1-yl)methyl)-2-fluorobenzoyl)piperazin-1-yl)nicotinonitrile]
- IC50 (His-GST-PARP7): < 50 nM
- IC50 (PARP2; read-out: PARP2 IC50): 100 to 500 nM

Compound: CC#Cc1ccc2c(=O)[nH]nc(Cc3ccc(F)c(C(=O)N4C5CCC4CN(c4ccc(C#N)cn4)C5)c3)c2c1 [Example 62, 6-(8-(2-Fluoro-5-((4-oxo-7-(prop-1-yn-1-yl)-3,4-dihydrophthalazin-1-yl)methyl)benzoyl)-3,8-diazabicyclo[3.2.1]octan-3-yl)nicotinonitrile]
- IC50 (His-GST-PARP7): < 50 nM
- IC50 (PARP2): 500 to 2000 nM

Compound: CC(F)(F)c1ccc2c(=O)[nH]nc(Cc3ccc(F)c(C(=O)N4CCN(c5ccc(C#N)cn5)CC4)c3)c2c1 [Example 36, 6-(4-(5-((7-(1,1-Difluoroethyl)-4-oxo-3,4-dihydrophthalazin-1-yl)methyl)-2-fluorobenzoyl)piperazin-1-yl)nicotinonitrile]
- IC50 (His-GST-PARP7): 50 to 100 nM
- IC50 (PARP2; read-out: PARP2 IC50): < 50 nM
- GI50 ([1]; 6 days, CellTiter-Glo): 100 to 1000 nM

Compound: CC(C)(C)Cc1ccc2c(=O)[nH]nc(Cc3ccc(F)c(C(=O)N4CCN(c5ccc(C#N)cn5)CC4)c3)c2c1 [Example 41, 6-(4-(2-Fluoro-5-((7-neopentyl-4-oxo-3,4-dihydrophthalazin-1-yl)methyl)benzoyl)piperazin-1-yl)nicotinonitrile]
- IC50 (His-GST-PARP7): 100 to 500 nM
- IC50 (PARP2; read-out: PARP2 IC50): 100 to 500 nM

Compound: CC#Cc1ccc2c(=O)[nH]nc(Cc3ccc(F)c(C(=O)N4CCN(c5ccc(C#N)cn5)C(C)C4)c3)c2c1 (stereo not shown) [Example 72, 6-(4-(2-Fluoro-5-((4-oxo-7-(prop-1-ynyl)-3,4-dihydrophthalazin-1-yl)methyl)benzoyl)-2-methylpiperazin-1-yl)nicotinonitrile]
- IC50 (His-GST-PARP7): < 50 nM
- IC50 (PARP2; read-out: PARP2 IC50): 100 to 500 nM

Compound: CC#Cc1ccc2c(=O)[nH]nc(Cc3ccc(F)c(C(=O)NCCN(CC)c4ccc(C#N)cn4)c3)c2c1 [Example 197, N-(2-((5-cyanopyridin-2-yl)(ethyl)amino)ethyl)-2-fluoro-5-((4-oxo-7-(prop-1-yn-1-yl)-3,4-dihydrophthalazin-1-yl)methyl)benzamide]
- IC50 (His-GST-PARP7): < 50 nM
- IC50 (PARP2; read-out: PARP2 IC50): > 2000 nM

Compound: N#Cc1ccc(N2CCN(C(=O)c3cc(Cc4n[nH]c(=O)c5ccc(N6CC(C(F)(F)F)C6)cc45)ccc3F)CC2)nc1 [Example 34, 6-(4-(2-Fluoro-5-((4-oxo-7-(3-(trifluoromethyl)azetidin-1-yl)-3,4-dihydrophthalazin-1-yl)methyl)benzoyl)piperazin-1-yl)nicotinonitrile]
- IC50 (His-GST-PARP7): < 50 nM
- IC50 (PARP2; read-out: PARP2 IC50): 500 to 2000 nM
- GI50 ([1]; 6 days, CellTiter-Glo): 100 to 1000 nM

Compound: 6-(4-(2-Fluoro-5-((4-oxo-7-(prop-2-yn-1-yloxy)-3,4-dihydrophthalazin-1-yl)methyl)benzoyl)piperazin-1-yl)nicotinonitrile [Example 26]
- IC50 (His-GST-PARP7): < 50 nM
- IC50 (PARP2; read-out: PARP2 IC50): 100 to 500 nM

Compound: N#Cc1ccc(N2CCN(C(=O)c3cc(Cc4n[nH]c(=O)c5ccc(N6CC7(CC(O)C7)C6)cc45)ccc3F)CC2)nc1 [Example 23, 6-(4-(2-Fluoro-5-((7-(6-hydroxy-2-azaspiro[3.3]heptan-2-yl)-4-oxo-3,4-dihydrophthalazin-1-yl)methyl)benzoyl)piperazin-1-yl)nicotinonitrile]
- IC50 (His-GST-PARP7): < 50 nM
- IC50 (PARP2; read-out: PARP2 IC50): 500 to 2000 nM
- GI50 ([1]; 6 days, CellTiter-Glo): > 5000 nM

Compound: N#Cc1ccc(N2CCN(C(=O)c3cc(Cc4n[nH]c(=O)c5ccc(C#CC(F)(F)F)cc45)ccc3F)CC2)nc1 [Example 24, 6-(4-(2-Fluoro-5-((4-oxo-7-(3,3,3-trifluoroprop-1-ynyl)-3,4-dihydrophthalazin-1-yl)methyl)benzoyl)piperazin-1-yl)nicotinonitrile]
- IC50 (His-GST-PARP7): < 50 nM
- IC50 (PARP2; read-out: PARP2 IC50): 100 to 500 nM
